Reference: paper PMC4978154, “Phase I metabolites of mephedrone display biological activity as substrates at monoamine transporters” (British Journal of Pharmacology, 2016)
Read-outs that look alike come from different tables or passages of the source.

Legend:
hNET = biological target: T1, hNET (Homo sapiens, UniProt P23975); assay: Transporter uptake inhibition in HEK293 cells expressing hNET; assay type: cell-based; details: [3H]-MPP+ uptake; for IC50: mean (95% confidence interval)
T1 construct: expressed in transfected cells
T1 sequence (P23975 whole entry): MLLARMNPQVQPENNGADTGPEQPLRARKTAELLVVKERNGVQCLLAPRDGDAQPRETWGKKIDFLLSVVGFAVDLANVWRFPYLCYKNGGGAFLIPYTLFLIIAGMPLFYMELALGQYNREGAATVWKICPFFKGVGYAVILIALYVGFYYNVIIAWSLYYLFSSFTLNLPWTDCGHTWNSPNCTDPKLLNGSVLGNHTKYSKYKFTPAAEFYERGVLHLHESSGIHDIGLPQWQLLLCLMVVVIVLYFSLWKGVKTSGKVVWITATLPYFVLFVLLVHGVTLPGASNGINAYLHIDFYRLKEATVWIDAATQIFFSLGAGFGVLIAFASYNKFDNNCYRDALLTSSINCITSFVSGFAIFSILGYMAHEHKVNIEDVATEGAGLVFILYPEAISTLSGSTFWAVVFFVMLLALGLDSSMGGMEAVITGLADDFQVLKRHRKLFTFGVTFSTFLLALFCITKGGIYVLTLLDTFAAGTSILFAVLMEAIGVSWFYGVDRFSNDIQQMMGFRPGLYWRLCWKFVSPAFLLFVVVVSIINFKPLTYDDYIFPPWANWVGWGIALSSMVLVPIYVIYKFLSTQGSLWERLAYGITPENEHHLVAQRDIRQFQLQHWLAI
Procedure: The generation of HEK293 cells stably expressing the human isoforms of DAT (hDAT) and NET (hNET) was carried out as described previously (Scholze et al., 2002). For SERT, the human isoform (hSERT) was cloned in frame with yellow fluorescent protein (Schmid et al., 2001). The generation of a stable cell line was performed as described by Hilber and colleagues (Hilber et al., 2005). HEK293 cells were maintained in humidified atmosphere (5% CO2, 37°C) in DMEM, supplemented with 10% heat‐inactivated FBS and penicillin (100 u 100 mL^−1) and streptomycin (100 μg 100 mL^−1). Selection pressure was maintained by adding geneticin (50 μg·mL^−1) to the cell culture media.
Uptake experiments were conducted as described previously (Sitte et al., 2001) with minor modifications. In brief, HEK293 cells expressing hDAT, hNET or hSERT were seeded into poly‐D‐lysine (PDL) coated 96‐well plates at a density of 40 000 cells per well. The next day, DMEM was aspirated and replaced with Krebs HEPES buffer (KHB, 25 mM HEPES, 120 mM NaCl, 5 mM KCl, 1.2 mM CaCl2, and 1.2 mM MgSO4, 5 mM D‐glucose, pH adjusted to 7.3 with NaOH) (200 μL per well), and cells were pre‐incubated with various concentrations of mephedrone or its metabolites for 5 min (50 μL per well). Subsequently, 0.1 μM of [^3H]‐5‐HT or 0.02 μM of [^3H]‐MPP^+ were added, and uptake was terminated after 1 (hSERT) or 3 min (hDAT, hNET) by washing the cells with 200 μL of ice‐cold KHB. Cells were lysed with 1% SDS, and tritium uptake was determined by scintillation counting. Nonspecific uptake was determined in the presence of 10 μM paroxetine (hSERT) or 10 μM mazindol (hDAT and hNET).
Calculations were performed using Microsoft Excel® 2010 (Microsoft Corporation, Redmond, WA, USA) and […] PRISM 5.0. (GraphPad Software Inc., La Jolla, CA, USA). IC50 values for uptake inhibition and EC50 values for release were determined by nonlinear regression fits. Release data expressed as AUC were analysed by one‐way ANOVA followed by Bonferroni's multiple comparison test. Microdialysis and locomotor data were analysed by two‐way ANOVA (drug treatment × time) followed by Bonferroni's test. The effect of monensin treatment on basal efflux of tritiated substrate was analysed with the Mann–Whitney test. P values less than 0.05 (i.e. P < 0.05) were considered significant. The data and statistical analysis comply with the recommendations on experimental design and analysis in pharmacology (Curtis et al., 2015).

rats = assay: Locomotor activity (photobeam breaks) during microdialysis; assay type: in vivo; details: rat; for effect on motor activity: 3 mg·kg−1 i.v.; for effect on motor behaviour (activity): 1 and 3 mg·kg−1 i.v.
Procedure: In vivo microdialysis procedures were carried out as previously described with minor modifications (Baumann et al., 2012). Briefly, male rats anaesthetized with sodium pentobarbital (60 mg·kg^−1, i.p.) received surgically implanted jugular catheters, and intracerebral guide cannulae aimed at the nucleus accumbens (AP +1.6 mm, ML −1.7 mm relative to bregma; −6.2 mm relative to dura) (Paxinos and Watson, 2007). After a 7–10 day recovery, each rat was placed into a chamber equipped with photobeams for the detection of motor parameters (TruScan, Harvard Apparatus, Holliston, MA, USA) and allowed to acclimatize overnight. Food and water were available ad libitum during the acclimatization period. On the following morning, catheters were attached to PE 50 extension tubes, and 0.5 × 2 mm microdialysis probes (CMA/12, Harvard Apparatus, Holliston, MA, USA) were inserted into the guide cannulae. Ringers' solution (150 mM NaCl, 2.8 mM KCl and 2.0 mM CaCl2) was perfused through the probes at 0.6 μL·min^−1 for 3 h. To commence experiments, dialysate samples ([…]) were collected at 20 min intervals, and drug or saline treatments were given after three baseline samples were obtained. Rats received two sequential i.v. injections of mephedrone or its metabolites, with 1 mg·kg^−1 administered at time zero, followed by 3 mg·kg^−1 60 min later. Saline was administered using the same schedule in a separate group of rats. Dialysate concentrations of dopamine and 5‐HT were quantified using HPLC coupled to electrochemical detection (Baumann et al., 2012). Chromatographic data were exported to an Empower software system (Waters, Inc., Milford, MA, USA) for peak identification, integration and analysis.
Calculations were performed using Microsoft Excel® 2010 (Microsoft Corporation, Redmond, WA, USA) and GRAPHPAD PRISM 5.0. (GraphPad Software Inc., La Jolla, CA, USA). IC50 values for uptake inhibition and EC50 values for release were determined by nonlinear regression fits. Release data expressed as AUC were analysed by one‐way ANOVA followed by Bonferroni's multiple comparison test. Microdialysis and locomotor data were analysed by two‐way ANOVA (drug treatment × time) followed by Bonferroni's test. The effect of monensin treatment on basal efflux of tritiated substrate was analysed with the Mann–Whitney test. P values less than 0.05 (i.e. P < 0.05) were considered significant. The data and statistical analysis comply with the recommendations on experimental design and analysis in pharmacology (Curtis et al., 2015).

[1] = IC50 on uptake mediated by hNET

SMILES | IC50 (hNET; [1]) [µM] | efficacy of uptake inhibition at hNET (hNET) | effect on motor activity (rats) | effect on motor behaviour (activity) (rats) | IC50 (hNET; read-out: IC50 on uptake mediated by hNET) [µM]
CNC(C)C(=O)c1ccc(C)cc1.Cl (centres unmarked) [Mephedrone, 2‐Methylamino‐1‐(p‐tolyl)propan‐1‐one hydrochloride] | 2.77 | fully efficacious inhibitors of uptake | significantly stimulated motor activity | increased activity | –
CNC(C)C(=O)c1ccc(CO)cc1.Cl (centres unmarked) [4‐OH‐mephedrone, 1‐(4‐(hydroxymethyl)phenyl)‐2‐(methylamino)propan‐1‐one hydrochloride] | – | fully efficacious inhibitors of uptake | – | did not | 4.85
Cc1ccc(C(=O)C(C)N)cc1.Cl (centres unmarked) [Nor‐mephedrone, 2‐amino‐1‐(p‐tolyl)propan‐1‐one hydrochloride] | 5.46 | fully efficacious inhibitors of uptake | significantly stimulated motor activity | increased activity | –
